Entries after “also recorded” stand apart in the source; their conditions may differ. Positions of bridges follow the written chain, without caps; N, C: chain ends. No end group written: not given here.
Legend:
Assay type in all cases: in vivo
BalbC mice = assay: Blastocyst transfer after intrauterine injection: number and spacing of viable implantation sites; conditions: AM 150 pmol into lumen of each uterine horn, day 2.5 of pseudopregnancy, evaluated three days post-transfer, vs vehicle
Text: A, Images of e6.5 embryos within uteri treated with vehicle, AM, or AM+AM(24-50) prior to transfer of 8 blastocysts per horn. Arrowheads indicate viable implantation sites as determined by uptake of Evans blue dye. Scale bar, 1 cm. B, Quantitation of viable implant sites per horn. ns, not significant. *p<0.05, Mann-Whitney test. C, Illustration of quantitation method for spacing of e6.5 embryos within uterine horns. SD, standard deviation. D, Quantitation of spacing using method depicted in (C). *p<0.05, unpaired t test.
It was hypothesized that administration of AM, an endocrine factor critical for a healthy pregnancy, to female mice would improve uterine receptivity and implantation rates. […] Dams were euthanized three days later, and the number and spacing of the viable implantation sites were evaluated.
Using this conceptually simple but elegant in vivo experiment, it was concluded that delivery of AM directly into the uterine lumen prior to the establishment of pregnancy promotes blastocyst implantation. This conclusion was arrived at by quantitating the number and spacing of viable implantation sites in uterine horns that were treated with either vehicle or AM prior to blastocyst transfer.

wild-type mice [1] = assay: Rate of pinopode formation throughout a treatment time course; conditions: AM 150 pmol, days 2.5-3.5 of pseudopregnancy, vs vehicle
Experimental: A, Scanning electron micrographs of vehicle- and AM-treated uteri throughout treatment time course. Scale bars, 1 μm. B, Quantitation of pinopodes per field throughout treatment time course. *p<0.05 at indicated time point, unpaired t test.
Further studies were performed to measure the effect of AM (150 pmol) on the rate of pinopode formation. The number of pinopodes was quantitated throughout a time course of AM treatment in wild-type mice (FIGS. 4A-4B).

wild-type mice [2] = assay: Pinopode formation and size in uteri treated for 30 min (scanning electron micrographs); conditions: AM 150 pmol, vs vehicle
Experimental: A, Scanning electron micrographs of pinopodes in wild type uteri treated with vehicle, AM, or AM+AM(24-50) for 30 minutes. Scale bars, 5 μm. B-D, Quantitation of pinopodes per field (B), size (C), and percent area of field (D). n=3 animals, n>4 fields per animal. ***p<0.001, unpaired t test.
The effect of AM on pinopode formation and size was studied. Wild-type mice were treated with vehicle, AM (150 pmol), or AM (150 pmol)+AM(24-50) (2 nmol) for 30 min and the amount and size of pinopodes was quantitated (FIGS. 3A-3D).

adrenomedullin (YRQSMNNFGGLRSFGCRFGTCTVQKLAHQIYQFTDKDKDNVAPRSKISPQGY; disulfide 16-21 (inferred); ends not checked; listed as Homo sapiens) [AM, peptide vasodilator]
number of viable implantation sites per horn (BalbC mice; 8 blastocysts per horn 5-10 min later): improves implantation success; also recorded: significantly more embryo implantation sites; also recorded: significantly more viable implantation sites | spacing of viable implantation sites (BalbC mice; 8 blastocysts per horn): improves implantation success and spacing; also recorded: evenly distributed throughout the length of the horn; also recorded: more evenly distributed throughout the length of the horn | rate of pinopode formation (pinopodes per field over time course) (wild-type mice [1]): accelerates pinopode formation | pinopode formation (pinopodes per field) (wild-type mice [2]): promotes pinopode formation | pinopode size (wild-type mice [2]): promotes pinopode formation and size

Reference: patent publication US10675306B2, “Adrenomedullin therapy to improve fetal implantation” (The University of North Carolina at Chapel Hill, priority 2015, dated 2020)
